Assay results from US20090181963A1, “3H-[1,2,3]TRIAZOLO[4,5-D]PYRIMIDINE COMPOUNDS, THEIR USE AS mTOR KINASE AND PI3 KINASE INHIBITORS, AND THEIR [sequence]” (Wyeth, priority 2008, published 2009).

Experiments:
PI3 Kinase γ = PI3 Kinase γ (Homo sapiens, UniProt P48736); assay: Fluorescence polarization assay for PI3K (PI3 Kinase γ); assay type: biochemical; details: diC8-PI(4,5)P2 substrate, 25 μM ATP, one hour at 25° C.
PI3 Kinase α = PI3 Kinase α (Homo sapiens, UniProt P42336); assay: Fluorescence polarization assay for PI3K (PI3 Kinase α); assay type: biochemical; details: diC8-PI(4,5)P2 substrate, 25 μM ATP, one hour at 25° C.
Sequence of PI3 Kinase α (P42336 whole entry): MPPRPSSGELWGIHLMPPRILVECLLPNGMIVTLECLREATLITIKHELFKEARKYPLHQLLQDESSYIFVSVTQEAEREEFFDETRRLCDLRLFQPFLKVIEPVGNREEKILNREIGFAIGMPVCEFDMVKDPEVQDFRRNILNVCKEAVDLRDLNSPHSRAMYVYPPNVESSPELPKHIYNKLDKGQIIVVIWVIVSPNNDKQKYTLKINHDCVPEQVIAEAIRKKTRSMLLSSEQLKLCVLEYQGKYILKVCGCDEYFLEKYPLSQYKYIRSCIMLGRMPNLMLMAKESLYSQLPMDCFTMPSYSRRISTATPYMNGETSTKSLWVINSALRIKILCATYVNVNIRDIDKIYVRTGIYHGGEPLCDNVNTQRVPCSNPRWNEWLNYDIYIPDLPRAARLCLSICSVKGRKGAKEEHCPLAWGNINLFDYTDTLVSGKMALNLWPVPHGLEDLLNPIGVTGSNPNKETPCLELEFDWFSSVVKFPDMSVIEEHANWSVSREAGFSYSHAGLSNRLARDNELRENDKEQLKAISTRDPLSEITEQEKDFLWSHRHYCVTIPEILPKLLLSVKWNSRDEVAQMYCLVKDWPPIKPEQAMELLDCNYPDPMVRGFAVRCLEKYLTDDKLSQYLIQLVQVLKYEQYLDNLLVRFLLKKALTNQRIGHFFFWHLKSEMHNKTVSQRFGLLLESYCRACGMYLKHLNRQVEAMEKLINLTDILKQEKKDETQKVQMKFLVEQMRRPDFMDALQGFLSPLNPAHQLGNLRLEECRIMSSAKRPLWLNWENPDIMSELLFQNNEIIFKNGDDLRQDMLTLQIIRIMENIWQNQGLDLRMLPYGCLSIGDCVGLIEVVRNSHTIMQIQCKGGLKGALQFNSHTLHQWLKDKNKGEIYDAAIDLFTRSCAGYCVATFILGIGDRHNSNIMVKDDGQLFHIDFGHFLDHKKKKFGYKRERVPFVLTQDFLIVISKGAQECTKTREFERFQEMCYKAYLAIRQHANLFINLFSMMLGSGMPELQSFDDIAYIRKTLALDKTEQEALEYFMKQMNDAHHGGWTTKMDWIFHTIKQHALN
Sequence of PI3 Kinase α (P27986 whole entry partner): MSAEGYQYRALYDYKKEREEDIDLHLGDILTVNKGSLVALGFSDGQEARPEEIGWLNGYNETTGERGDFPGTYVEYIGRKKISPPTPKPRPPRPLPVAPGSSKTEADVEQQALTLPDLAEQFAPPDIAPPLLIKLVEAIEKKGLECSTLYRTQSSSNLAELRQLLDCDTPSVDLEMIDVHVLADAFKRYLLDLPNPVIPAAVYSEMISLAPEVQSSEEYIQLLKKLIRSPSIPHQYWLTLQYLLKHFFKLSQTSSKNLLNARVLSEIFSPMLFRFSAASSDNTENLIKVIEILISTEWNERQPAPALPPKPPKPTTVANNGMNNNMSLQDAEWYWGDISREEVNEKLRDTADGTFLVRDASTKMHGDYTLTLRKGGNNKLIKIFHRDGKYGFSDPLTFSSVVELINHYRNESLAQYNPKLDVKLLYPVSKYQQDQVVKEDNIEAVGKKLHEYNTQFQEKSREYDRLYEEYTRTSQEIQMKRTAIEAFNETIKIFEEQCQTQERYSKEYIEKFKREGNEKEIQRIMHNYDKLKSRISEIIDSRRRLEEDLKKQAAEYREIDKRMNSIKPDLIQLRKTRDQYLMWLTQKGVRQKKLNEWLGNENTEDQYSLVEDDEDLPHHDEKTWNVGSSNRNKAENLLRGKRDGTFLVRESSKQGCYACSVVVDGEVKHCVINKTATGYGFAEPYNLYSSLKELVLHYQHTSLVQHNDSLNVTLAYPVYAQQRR

Sequence of PI3 Kinase γ (P48736 whole entry): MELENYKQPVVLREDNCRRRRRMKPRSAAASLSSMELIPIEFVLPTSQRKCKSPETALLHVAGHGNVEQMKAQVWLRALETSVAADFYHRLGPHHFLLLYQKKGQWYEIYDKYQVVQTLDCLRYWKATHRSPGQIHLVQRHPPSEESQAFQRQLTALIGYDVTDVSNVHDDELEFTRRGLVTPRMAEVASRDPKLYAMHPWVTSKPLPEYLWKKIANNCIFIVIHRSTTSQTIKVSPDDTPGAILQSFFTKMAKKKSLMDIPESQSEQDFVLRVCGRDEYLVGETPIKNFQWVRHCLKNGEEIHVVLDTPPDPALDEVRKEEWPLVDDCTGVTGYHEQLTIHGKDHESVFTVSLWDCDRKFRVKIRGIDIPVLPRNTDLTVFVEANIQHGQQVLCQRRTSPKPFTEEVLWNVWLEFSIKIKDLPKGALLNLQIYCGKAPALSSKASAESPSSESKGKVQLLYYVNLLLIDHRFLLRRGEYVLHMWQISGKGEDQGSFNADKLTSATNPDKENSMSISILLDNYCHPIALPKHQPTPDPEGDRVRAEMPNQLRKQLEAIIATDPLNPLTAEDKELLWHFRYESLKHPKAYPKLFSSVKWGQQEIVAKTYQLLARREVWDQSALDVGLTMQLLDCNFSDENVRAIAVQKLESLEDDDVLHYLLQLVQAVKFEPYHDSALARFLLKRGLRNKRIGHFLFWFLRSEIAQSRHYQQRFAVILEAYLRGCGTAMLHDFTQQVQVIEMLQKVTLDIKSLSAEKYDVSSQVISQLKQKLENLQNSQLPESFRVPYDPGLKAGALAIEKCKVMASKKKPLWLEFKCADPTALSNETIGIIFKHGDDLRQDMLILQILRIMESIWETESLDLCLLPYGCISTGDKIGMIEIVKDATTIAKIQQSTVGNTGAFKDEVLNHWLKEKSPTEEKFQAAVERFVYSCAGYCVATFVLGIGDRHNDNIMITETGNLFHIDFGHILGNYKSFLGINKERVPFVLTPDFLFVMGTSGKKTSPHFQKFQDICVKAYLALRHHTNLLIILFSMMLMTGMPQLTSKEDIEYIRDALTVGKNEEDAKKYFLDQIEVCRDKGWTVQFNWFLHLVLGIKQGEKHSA

O=C(NCc1ccccc1)c1ccc(Cn2nnc3c(N4CCOCC4)nc(-c4cccc(O)c4)nc32)cc1 [Example 212, N-benzyl-4-{[5-(3-hydroxyphenyl)-7-morpholin-4-yl-3H-[1,2,3]triazolo[4,5-d]pyrimidin-3-yl]methyl}benzamide]
IC50 (PI3 Kinase γ): 766 nM
IC50 (PI3 Kinase α): 78 nM

CC(=O)NCCn1nnc2c(N3CCOCC3)nc(-c3cccc(CO)c3)nc21 [Example 8, N-(2-{5-[3-(hydroxymethyl)phenyl]-7-morpholin-4-yl-3H-[1,2,3]triazolo[4,5-d]pyrimidin-3-yl}ethyl)acetamide]
IC50 (PI3 Kinase γ): 196 nM
IC50 (PI3 Kinase α): 86 nM

CC(C)(C)OC(=O)NC1CCN(C(=O)c2ccc(Cn3nnc4c(N5CCOCC5)nc(-c5cccc(O)c5)nc43)cc2)CC1 [Example 209, tert-butyl [1-(4-{[5-(3-hydroxyphenyl)-7-morpholin-4-yl-3H-[1,2,3]triazolo[4,5-d]pyrimidin-3-yl]methyl}benzoyl)piperidin-4-yl]carbamate]
IC50 (PI3 Kinase γ): 1670 nM
IC50 (PI3 Kinase α): 447 nM

Oc1cncc(-c2nc(N3CCOCC3)c3nnn(C4CCN(Cc5ccccc5)CC4)c3n2)c1 [Example 3, 5-[3-(1-benzylpiperidin-4-yl)-7-morpholin-4-yl-3H-[1,2,3]triazolo[4,5-d]pyrimidin-5-yl]pyridin-3-ol]
IC50 (PI3 Kinase γ): 133 nM
IC50 (PI3 Kinase α): 69 nM

CC(C)n1nnc2c(N3CCOCC3)nc(-c3ccc(NC(=O)Nc4ccc(N(C)C)cc4)cc3)nc21 [Example 86, 1-(4-dimethylamino-phenyl)-3-[4-(3-isopropyl-7-morpholin-4-yl-3H-[1,2,3]triazolo[4,5-d]pyrimidin-5-yl)-phenyl]-urea]
IC50 (PI3 Kinase γ): 69 nM
IC50 (PI3 Kinase α): 23.5 nM

CCn1nnc2c(N3CCOCC3)nc(-c3ccc(NC(=O)Nc4ccc(C(=O)N5CCC(N6CCOCC6)CC5)cc4)cc3)nc21 [Example 48, 1-[4-(3-ethyl-7-morpholin-4-yl-3H-[1,2,3]triazolo[4,5-d]pyrimidin-5-yl)phenyl]-3-{4-[(4-morpholin-4-ylpiperidin-1-yl)carbonyl]phenyl}urea]
IC50 (PI3 Kinase γ): 31 nM
IC50 (PI3 Kinase α): 5.5 nM

Oc1cccc(-c2nc(N3CCOCC3)c3nnn(CCN4CCN(Cc5ccccc5)CC4)c3n2)c1 [Example 114, 3-{3-[2-(4-benzylpiperazin-1-yl)ethyl]-7-morpholin-4-yl-3H-[1,2,3]triazolo[4,5-d]pyrimidin-5-yl}phenol]
IC50 (PI3 Kinase γ): 982 nM
IC50 (PI3 Kinase α): 255 nM

CCN1CCCC1Cn1nnc2c(N3CCOCC3)nc(-c3cccc(O)c3)nc21 (stereo not drawn) [Example 172, 3-{3-[(1-ethylpyrrolidin-2-yl)methyl]-7-morpholin-4-yl-3H-[1,2,3]triazolo[4,5-d]pyrimidin-5-yl}phenol]
IC50 (PI3 Kinase γ): 1230 nM
IC50 (PI3 Kinase α): 204 nM

CC(C)(C)OC(=O)N1CCC(n2nnc3c(N4CCOCC4)nc(-c4ccc(NC(=O)Nc5ccncc5)cc4)nc32)CC1 [Example 166, tert-butyl 4-(7-morpholin-4-yl-5-{4-[(pyridin-4-ylcarbamoyl)amino]phenyl}-3H-[1,2,3]triazolo[4,5-d]pyrimidin-3-yl)piperidine-1-carboxylate]
IC50 (PI3 Kinase γ): 494 nM
IC50 (PI3 Kinase α): 36.5 nM

Oc1cccc(-c2nc(N3CCOCC3)c3nnn(C4CCN(Cc5ccccn5)CC4)c3n2)c1 [Example 149, 3-{7-morpholin-4-yl-3-[1-(pyridin-2-ylmethyl)piperidin-4-yl]-3H-[1,2,3]triazolo[4,5-d]pyrimidin-5-yl}phenol]
IC50 (PI3 Kinase γ): 735 nM
IC50 (PI3 Kinase α): 67 nM

Oc1cncc(-c2nc(N3CCOCC3)c3nnn(C4CCN(Cc5ccc[nH]5)CC4)c3n2)c1 [Example 29, 5-{7-morpholin-4-yl-3-[1-(1H-pyrrol-2-ylmethyl)piperidin-4-yl]-3H-[1,2,3]triazolo[4,5-d]pyrimidin-5-yl}pyridin-3-ol]
IC50 (PI3 Kinase γ): 3110 nM
IC50 (PI3 Kinase α): 1140 nM

CCn1nnc2c(N3CCOCC3)nc(-c3ccc(NC(=O)OCCc4ccc(N)cc4)cc3)nc21 [Example 38, 2-(4-aminophenyl)ethyl [4-(3-ethyl-7-morpholin-4-yl-3H-[1,2,3]triazolo[4,5-d]pyrimidin-5-yl)phenyl]carbamate]
IC50 (PI3 Kinase γ): 7440 nM
IC50 (PI3 Kinase α): 341 nM

CCn1nnc2c(N3CCOCC3)nc(-c3ccc(NC(=O)Nc4ccc(C(=O)N(C)CCN(C)C)cc4)cc3)nc21 [Example 45, N-[2-(dimethylamino)ethyl]-4-({[4-(3-ethyl-7-morpholin-4-yl-3H-[1,2,3]triazolo[4,5-d]pyrimidin-5-yl)phenyl]carbamoyl}amino)-N-methylbenzamide]
IC50 (PI3 Kinase γ): 11.3 nM
IC50 (PI3 Kinase α): < 2.2 nM

O=C(c1ccc(F)c(F)c1)N1CCN(CCn2nnc3c(N4CCOCC4)nc(-c4cccc(O)c4)nc32)CC1 [Example 102, 3-(3-{2-[4-(3,4-difluorobenzoyl)piperazin-1-yl]ethyl}-7-morpholin-4-yl-3H-[1,2,3]triazolo[4,5-d]pyrimidin-5-yl)phenol]
IC50 (PI3 Kinase γ): 1920 nM
IC50 (PI3 Kinase α): 1260 nM

CCN(CC)C(=O)c1ccc(Cn2nnc3c(N4CCOCC4)nc(-c4cccc(O)c4)nc32)cc1 [Example 220, N,N-diethyl-4-{[5-(3-hydroxyphenyl)-7-morpholin-4-yl-3H-[1,2,3]triazolo[4,5-d]pyrimidin-3-yl]methyl}benzamide]
IC50 (PI3 Kinase γ): 2420 nM
IC50 (PI3 Kinase α): 1150 nM

CN(C)CCNC(=O)c1ccc(Cn2nnc3c(N4CCOCC4)nc(-c4cccc(O)c4)nc32)cc1 [Example 214, N-[2-(dimethylamino)ethyl]-4-{[5-(3-hydroxyphenyl)-7-morpholin-4-yl-3H-[1,2,3]triazolo[4,5-d]pyrimidin-3-yl]methyl}benzamide]
IC50 (PI3 Kinase γ): 1540 nM
IC50 (PI3 Kinase α): 386 nM

Oc1cncc(-c2nc(N3CCOCC3)c3nnn(C4CCN(Cc5cncc(Br)c5)CC4)c3n2)c1 [Example 16, 5-(3-{1-[(5-bromopyridin-3-yl)methyl]piperidin-4-yl}-7-morpholin-4-yl-3H-[1,2,3]triazolo[4,5-d]pyrimidin-5-yl)pyridin-3-ol]
IC50 (PI3 Kinase γ): 161 nM
IC50 (PI3 Kinase α): 61 nM

Oc1cccc(-c2nc(N3CCOCC3)c3nnn(CCN4CCCCC4)c3n2)c1 [Example 195, 3-[7-Morpholin-4-yl-3-(2-piperidin-1-ylethyl)-3H-[1,2,3]triazolo[4,5-d]pyrimidin-5-yl]phenol]
IC50 (PI3 Kinase γ): 5210 nM
IC50 (PI3 Kinase α): 689 nM

1-{4-[3-(2-hydroxyethyl)-7-morpholin-4-yl-3H-[1,2,3]triazolo[4,5-d]pyrimidin-5-yl]phenyl}-3-pyridin-4-ylurea [Example 183]
IC50 (PI3 Kinase γ): 20 nM
IC50 (PI3 Kinase α): 5.3 nM

CN(C)CCCNC(=O)c1ccc(Cn2nnc3c(N4CCOCC4)nc(-c4cccc(O)c4)nc32)cc1 [Example 215, N-[3-(dimethylamino)propyl]-4-{[5-(3-hydroxyphenyl)-7-morpholin-4-yl-3H-[1,2,3]triazolo[4,5-d]pyrimidin-3-yl]methyl}benzamide]
IC50 (PI3 Kinase γ): 4030 nM
IC50 (PI3 Kinase α): 335 nM

Nc1ncc(-c2nc(N3CCOCC3)c3nnn(C4CCN(Cc5ccccc5)CC4)c3n2)cn1 [Example 2, 5-[3-(1-benzylpiperidin-4-yl)-7-morpholin-4-yl-3H-[1,2,3]triazolo[4,5-d]pyrimidin-5-yl]pyrimidin-2-amine]
IC50 (PI3 Kinase γ): 4330 nM
IC50 (PI3 Kinase α): 1820 nM

Cc1cc(CN2CCC(n3nnc4c(N5CCOCC5)nc(-c5cncc(O)c5)nc43)CC2)sc1C [Example 26, 5-(3-{1-[(4,5-dimethyl-2-thienyl)methyl]piperidin-4-yl}-7-morpholin-4-yl-3H-[1,2,3]triazolo[4,5-d]pyrimidin-5-yl)pyridin-3-ol]
IC50 (PI3 Kinase γ): 108 nM
IC50 (PI3 Kinase α): 16 nM

CN(C)CCNC(=O)Nc1ccc(-c2nc(N3CCOCC3)c3nnn(C4CCN(Cc5ccc(-c6ccncc6)cc5)CC4)c3n2)cc1 [Example 160, 1-(2-(dimethylamino)ethyl)-3-(4-(7-morpholino-3-(1-(4-(pyridin-4-yl)benzyl)piperidin-4-yl)-3H-[1,2,3]triazolo[4,5-d]pyrimidin-5-yl)phenyl)urea]
IC50 (PI3 Kinase γ): 108 nM
IC50 (PI3 Kinase α): 13 nM

CCn1nnc2c(N3CCOCC3)nc(-c3ccc(NC(=O)Nc4ccc(C(=O)N(C)C)cc4)cc3)nc21 [Example 61, 4-({[4-(3-ethyl-7-morpholin-4-yl-3H-[1,2,3]triazolo[4,5-d]pyrimidin-5-yl)phenyl]carbamoyl}amino)-N,N-dimethylbenzamide]
IC50 (PI3 Kinase γ): 12 nM
IC50 (PI3 Kinase α): 1.6 nM

CCn1nnc2c(N3CCOCC3)nc(-c3ccc(NC(=O)Nc4ccc(C(=O)OC)cc4)cc3)nc21 [Example 41, methyl 4-({[4-(3-ethyl-7-morpholin-4-yl-3H-[1,2,3]triazolo[4,5-d]pyrimidin-5-yl)phenyl]carbamoyl}amino)benzoate]
IC50 (PI3 Kinase γ): 84.5 nM
IC50 (PI3 Kinase α): 23.3 nM

CC(C)n1nnc2c(N3CCOCC3)nc(-c3ccc(NC(=O)Nc4ccc(F)cc4)cc3)nc21 [Example 87, 1-(4-fluoro-phenyl)-3-[4-(3-isopropyl-7-morpholin-4-yl-3H-[1,2,3]triazolo[4,5-d]pyrimidin-5-yl)-phenyl]-urea]
IC50 (PI3 Kinase γ): 69.5 nM
IC50 (PI3 Kinase α): 13.5 nM

O=C(Nc1cccnc1)c1ccc(Cn2nnc3c(N4CCOCC4)nc(-c4cccc(O)c4)nc32)cc1 [Example 216, 4-{[5-(3-hydroxyphenyl)-7-morpholin-4-yl-3H-[1,2,3]triazolo[4,5-d]pyrimidin-3-yl]methyl}-N-pyridin-3-ylbenzamide]
IC50 (PI3 Kinase γ): 361 nM
IC50 (PI3 Kinase α): 58 nM

CCC(=O)N1CCN(CCn2nnc3c(N4CCOCC4)nc(-c4cccc(O)c4)nc32)CC1 [Example 100, 3-{7-morpholin-4-yl-3-[2-(4-propionylpiperazin-1-yl)ethyl]-3H-[1,2,3]triazolo[4,5-d]pyrimidin-5-yl}phenol]
IC50 (PI3 Kinase γ): 3140 nM
IC50 (PI3 Kinase α): 1660 nM

CCn1nnc2c(N3CCOCC3)nc(-c3ccc(N)cc3)nc21 [Example 32, 4-(3-Ethyl-7-morpholin-4-yl-3H-[1,2,3]triazolo[4,5-d]pyrimidin-5-yl)-phenylamine]
IC50 (PI3 Kinase γ): 4070 nM
IC50 (PI3 Kinase α): 554 nM

CCn1nnc2c(N3CCOCC3)nc(-c3ccc(NC(=O)Nc4ccc(C(=O)NCCN5CCCCC5)cc4)cc3)nc21 [Example 56, 4-({[4-(3-ethyl-7-morpholin-4-yl-3H-[1,2,3]triazolo[4,5-d]pyrimidin-5-yl)phenyl]carbamoyl}amino)-N-(2-piperidin-1-ylethyl)benzamide]
IC50 (PI3 Kinase γ): 11 nM
IC50 (PI3 Kinase α): 1.7 nM
